According to article PMC10179352, “Clostridia and Enteroviruses as Synergistic Triggers of Type 1 Diabetes Mellitus” (International Journal of Molecular Sciences, 2023):

Experiments:
[1] = molecular target: INS (Homo sapiens, UniProt P01308); settings: ultraviolet spectrometry; derived from previous study; read-out: Binding Constants, INS; cited from earlier work
Source text: (§1) Table 1 Summary of ultraviolet spectrometry experiments concerning binding of T cell receptor sequences expanded in type 1 diabetic patients (TCR DIA) to a COX peptide (Cox Pep) that mimics the INS receptor (Ins Rec), two Clostridium peptides (Clost Pep) that mimic INS, two INS receptor peptides identified by their amino acid sequence numbers, and INS itself. Gluc = glucagon-like sequence; GR = gl | column: INS

[2] = molecular target: Ins Rec 897–915; settings: ultraviolet spectrometry; derived from previous study; read-out: Binding Constants, Ins Rec 897–915; cited from earlier work
Source text: as §1, with “column: Ins Rec 897–915” for “column: INS”

[3] = molecular target: Clost Pep #2; assay: Ultraviolet spectrometry peptide binding; parameters: species or system Clostridium; settings: estimated from inflection points of the curves, read-out: Binding Constants, Clost Pep #2
Source text: (§2) Because some COX antigens mimic INSR sequences and some Clostridia antigens mimic INS, we synthesized several microbial peptide sequences that mimicked these human proteins and used ultraviolet spectroscopy to determine whether they bound to each other, as would be the case if they were complementary antigens. Figure 12 provides the peptide sequences and their similarities to either INS or INSR. Clostridium similarities to the INS A chain were specifically chosen because the role of the A chain in the induction of T1DM is generally ignored in favor of the B chain.
(§3) Previous investigators have sequenced the T cell receptor (TCR) sequences that are expanded in T1DM patients with particular specificities for INS or INSR [61, 62]. […] TCR 1, 2, and 4 were from one patient; TCR 8, 9, and 10 were from a second patient; and TCR K2.4, K2.12, and K2.16 were from a third. Ultraviolet light spectrometry was used to determine whether each TCR sequence recognized the COX and Clostridia peptides used in the previous set of experiments (Figure 12). The results are shown in Table 1, Figure 13, and Appendix F.

[4] = molecular target: Clost Pep #3; assay: Ultraviolet spectrometry peptide binding; parameters: species or system Clostridium; settings: estimated from inflection points of the curves, read-out: Binding Constants, Clost Pep #3
Source text: as §2, §3

[5] = molecular target: Cox Pep #1 (COX peptide that mimics the INS receptor); assay: Ultraviolet spectrometry peptide binding; settings: estimated from inflection points of the curves, read-out: Binding Constants, Cox Pep #1
Source text: as §2, §3

[6] = molecular target: Ins Rec 105–118; settings: ultraviolet spectrometry; derived from previous study; read-out: Binding Constants, Ins Rec 105–118; cited from earlier work
Source text: as §1, with “column: Ins Rec 105–118” for “column: INS”

Sequence of INS (P01308 25-54): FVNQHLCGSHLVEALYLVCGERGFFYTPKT
Sequence of INS (P01308 90-110): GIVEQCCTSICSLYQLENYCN

Row | Molecule | Kd [1] | Kd [2] | Kd [3] | Kd [4] | Kd [5] | Kd [6]
1 | CC[C@H](C)[C@H](NC(=O)[C@@H](NC(=O)[C@H](C)NC(=O)[C@H](CC(C)C)NC(=O)[C@H](CO)NC(=O)[C@H](CO)NC(=O)[C@H](C)NC(=O)[C@@H](N)CS)C(C)C)C(=O)N[C@@H](CCCNC(=N)N)C(=O)N[C@H](C(=O)O)[C@@H](C)O (single isomer, unassigned) [TCR DIA 2, K2.16] | > 1000 µM |  |  |  |  | 
2 | CC(C)C[C@H](NC(=O)[C@H](C)NC(=O)[C@H](CO)NC(=O)[C@@H](N)CC(=O)O)C(=O)N[C@@H](Cc1ccc(O)cc1)C(=O)N[C@@H](CC(C)C)C(=O)N[C@@H](CS)C(=O)N[C@@H](C)C(=O)N[C@@H](CO)C(=O)N[C@@H](CO)C(=O)N[C@@H](CC(C)C)C(=O)NCC(=O)O (single isomer, unassigned) [TCR DIA 4,8,9] | > 1000 µM |  |  |  |  | 
3 | CASSIYLCSVEATRAD [TCR DIA 1] | 80 µM | 300 µM | 100 µM | 100 µM | 400 µM | 125 µM
